Legend:
[1] = tested on: pulmonary LPS-stimulated rats; assay: Cytokine expression in BALF supernatant (multiplex immunoassay), LPS-induced acute pulmonary inflammation; type: in vivo; conditions: 3 mg/kg IP 1 h before LPS
[2] = tested on: pulmonary LPS-stimulated rats; assay: Immune cell infiltration in BALF, LPS-induced acute pulmonary inflammation; type: in vivo; conditions: 3 mg/kg IP 1 h before LPS; BALF 4 h post LPS

C[C@@H]1C[C@H]2[C@@H]3CCC4=CC(=O)C=C[C@]4(C)[C@@]3(F)[C@@H](O)C[C@]2(C)[C@@]1(O)C(=O)CO [Dex, Dexamethasone, reference compound]
CCL2, significant change in cytokine expression in BALF supernatant [1]: + (+ = Significant change in cytokine quantification, p < 0.05 by Student's T-test)
CCL3, significant change in cytokine expression in BALF supernatant [1]: + (+ = Significant change in cytokine quantification, p < 0.05 by Student's T-test)
CCL5, significant change in cytokine expression in BALF supernatant [1]: + (+ = Significant change in cytokine quantification, p < 0.05 by Student's T-test)
CCL11, significant change in cytokine expression in BALF supernatant [1]: + (+ = Significant change in cytokine quantification, p < 0.05 by Student's T-test)
CX3CL1, significant change in cytokine expression in BALF supernatant [1]: + (+ = Significant change in cytokine quantification, p < 0.05 by Student's T-test)
CXCL1, significant change in cytokine expression in BALF supernatant [1]: + (+ = Significant change in cytokine quantification, p < 0.05 by Student's T-test)
CXCL5, significant change in cytokine expression in BALF supernatant [1]: + (+ = Significant change in cytokine quantification, p < 0.05 by Student's T-test)
CXCL10, significant change in cytokine expression in BALF supernatant [1]: + (+ = Significant change in cytokine quantification, p < 0.05 by Student's T-test)
EGF, significant change in cytokine expression in BALF supernatant [1]: + (+ = Significant change in cytokine quantification, p < 0.05 by Student's T-test)
IFN-γ, significant change in cytokine expression in BALF supernatant [1]: + (+ = Significant change in cytokine quantification, p < 0.05 by Student's T-test)
IL-1α, significant change in cytokine expression in BALF supernatant [1]: + (+ = Significant change in cytokine quantification, p < 0.05 by Student's T-test)
IL-1β, significant change in cytokine expression in BALF supernatant [1]: + (+ = Significant change in cytokine quantification, p < 0.05 by Student's T-test)
IL-5, significant change in cytokine expression in BALF supernatant [1]: + (+ = Significant change in cytokine quantification, p < 0.05 by Student's T-test)
IL-6, significant change in cytokine expression in BALF supernatant [1]: + (+ = Significant change in cytokine quantification, p < 0.05 by Student's T-test)
IL-10, significant change in cytokine expression in BALF supernatant [1]: + (+ = Significant change in cytokine quantification, p < 0.05 by Student's T-test)
IL-12p70, significant change in cytokine expression in BALF supernatant [1]: + (+ = Significant change in cytokine quantification, p < 0.05 by Student's T-test)
IL-13, significant change in cytokine expression in BALF supernatant [1]: + (+ = Significant change in cytokine quantification, p < 0.05 by Student's T-test)
IL-17A, significant change in cytokine expression in BALF supernatant [1]: + (+ = Significant change in cytokine quantification, p < 0.05 by Student's T-test)
TNF-α, significant change in cytokine expression in BALF supernatant [1]: + (+ = Significant change in cytokine quantification, p < 0.05 by Student's T-test)
Neutrophils in BALF, reduction in cell count vs disease control [2]: +++ (+++ = >75% reduction in cell count vs disease control)
Total Leukocytes in BALF, reduction in cell count vs disease control [2]: +++ (+++ = >75% reduction in cell count vs disease control)

Reference: patent US20250288587A1, “Methods of Treating Fibrosis” (Athira Pharma, Inc., priority 2022, published 2025)
